Patent US20240358693A1, “METHODS OF TREATING PAIN” (Aisa Pharma, Inc., priority 2023, published 2024)

System: participants with SSc-RP
Test: Frequency of weekly RP attacks (all attacks; primary efficacy endpoint)
Type: in vivo, human
Excerpt: Percent change from baseline evaluation for frequency of weekly RP attacks were or will be used as the primary efficacy variable. The sponsor-developed participant-informed diary will be used to record data. Frequency of weekly RP attacks is defined as the total number of RP attacks divided by the number of days with available diary data within the last 7 days of each dosing period then multiplied by 7. Total number of RP attacks during the last 7 days of screening period divided by the number of days with available data then multiplied by 7 will be used as baseline for the analysis of all periods. The variable will be calculated as follows:
Percentage change={(weekly RP attacks for the last 7 days of each dosing period−Baseline weekly RP attacks)/Baseline weekly RP attacks}*100%.
Absolute change=weekly RP attacks for the last 7 days of each dosing period−Baseline weekly RP attacks
Percent change from baseline evaluation for frequency of weekly RP attacks was and will be the primary efficacy endpoint. Frequency of weekly RP attacks is defined as the total number of RP attacks divided by the number of days with available diary data within the last 7 days of each dosing period then multiplied by 7. Total number of RP attacks during the last 7 days of screening period divided by the number of days with available data then multiplied by 7 will be used as baseline for the analysis of all periods.
Percent change from baseline evaluation for frequency of weekly RP attacks were the primary efficacy endpoint. Data collected in the last 7 days of each dosing period were used for this analysis. Screening assessments were used as baseline for the analysis of all periods. No multiple comparison adjustment were used to control alpha for the multiple comparisons. Mixed effects model were used for analysis of the primary endpoint according to the crossover design. Other efficacy endpoints of continuous variables were analyzed using similar methodology. For nominal data, chi-square tests were applied. Generalized Estimating Equations method were used, as appropriate, for adjusting for potential confounding factors. In addition, the final analysis assessed whether in this study of severe Raynaud's disease participants, the minimally important difference, previously concluded of 14-15 points on the 100 point RCS scale had been achieved in the cilnidipine dose group. It also recorded the percentage of participants achieving a PASS (34 point difference from baseline on a 0-100 VAS) in each treatment group.

[1] = Tadalafil 5 mg, n=1, Excluding Outliers, by Baseline RCS, second subgroup, ITT Part A
[2] = all attacks, excluding outliers, cilnidipine 10 mg, tadalafil 5 mg daily
[3] = all attacks, by baseline RCS, second subgroup, cilnidipine 10 mg, tadalafil 5 mg daily
[4] = all attacks, cilnidipine 10 mg, tadalafil 5 mg daily

CN1CC(=O)N2[C@H](c3ccc4c(c3)OCO4)c3[nH]c4ccccc4c3C[C@@H]2C1=O [Tadalafil, tadalafil]
Weekly RP Attacks (All Attacks) Change from Baseline, Mean [1]: 6.00
Weekly RP Attacks (All Attacks) Change from Baseline, Median [1]: 6.00
Weekly RP Attacks (All Attacks) Percent Change from Baseline, Mean [1]: 46.15%
Weekly RP Attacks (All Attacks) Percent Change from Baseline, Median [1]: 46.15%
Weekly RP Attacks (All Attacks), Mean [1]: 19.00
Weekly RP Attacks (All Attacks), Median [1]: 19.00
Weekly RP Attacks Change from Baseline, Max [2]: 6.0, 6.0
Weekly RP Attacks Change from Baseline, Mean (SD) [2]: 6.00
Weekly RP Attacks Change from Baseline, Median [2]: 6.00
Weekly RP Attacks Change from Baseline, Min [2]: 6.0, 6.0
Weekly RP Attacks Change from Baseline, Q1 [2]: 6.00, 6.00
Weekly RP Attacks Change from Baseline, Q3 [2]: 6.00, 6.00
Weekly RP Attacks Percent Change from Baseline, Max [2]: 46.2, 46.2%
Weekly RP Attacks Percent Change from Baseline, Mean (SD) [2]: 46.15%
Weekly RP Attacks Percent Change from Baseline, Median [2]: 46.15%
Weekly RP Attacks Percent Change from Baseline, Min [2]: 46.2, 46.2%
Weekly RP Attacks Percent Change from Baseline, Q1 [2]: 46.15, 46.15%
Weekly RP Attacks Percent Change from Baseline, Q3 [2]: 46.15, 46.15%
Weekly RP Attacks, Max [2]: 19.0, 19.0
Weekly RP Attacks, Mean (SD) [2]: 19.00
Weekly RP Attacks, Median [2]: 19.00
Weekly RP Attacks, Min [2]: 19.0, 19.0
Weekly RP Attacks, Q1 [2]: 19.00, 19.00
Weekly RP Attacks, Q3 [2]: 19.00, 19.00
Weekly RP Attacks Change from Baseline, Max [3]: 6.0
Weekly RP Attacks Change from Baseline, Mean [3]: 3.00
Weekly RP Attacks Change from Baseline, Median [3]: 3.00
Weekly RP Attacks Change from Baseline, Min [3]: 0.0
Weekly RP Attacks Change from Baseline, Q1 [3]: 0.00
Weekly RP Attacks Change from Baseline, Q3 [3]: 6.00
Weekly RP Attacks Percent Change from Baseline, Max [3]: 46.2%
Weekly RP Attacks Percent Change from Baseline, Mean [3]: 23.08%
Weekly RP Attacks Percent Change from Baseline, Median [3]: 23.08%
Weekly RP Attacks Percent Change from Baseline, Min [3]: 0.0%
Weekly RP Attacks Percent Change from Baseline, Q1 [3]: 0.00%
Weekly RP Attacks Percent Change from Baseline, Q3 [3]: 46.15%
Weekly RP Attacks, Max [3]: 19.0
Weekly RP Attacks, Mean [3]: 13.00
Weekly RP Attacks, Median [3]: 13.00
Weekly RP Attacks, Min [3]: 7.0
Weekly RP Attacks, Q1 [3]: 7.00
Weekly RP Attacks, Q3 [3]: 19.00
Weekly RP Attacks Change from Baseline, Max [4]: 6.0
Weekly RP Attacks Change from Baseline, Mean (SD) [4]: 3.00 (4.243)
Weekly RP Attacks Change from Baseline, Median [4]: 3.00
Weekly RP Attacks Change from Baseline, Min [4]: 0.0
Weekly RP Attacks Change from Baseline, Q1 [4]: 0.00
Weekly RP Attacks Change from Baseline, Q3 [4]: 6.00
Weekly RP Attacks Percent Change from Baseline, Max [4]: 46.2%
Weekly RP Attacks Percent Change from Baseline, Mean (SD) [4]: 23.08 (32.636) Percent
Weekly RP Attacks Percent Change from Baseline, Median [4]: 23.08%
Weekly RP Attacks Percent Change from Baseline, Min [4]: 0.0%
Weekly RP Attacks Percent Change from Baseline, Q1 [4]: 0.00%
Weekly RP Attacks Percent Change from Baseline, Q3 [4]: 46.15%
Weekly RP Attacks, Max [4]: 19.0
Weekly RP Attacks, Mean (SD) [4]: 13.00 (8.485)
Weekly RP Attacks, Median [4]: 13.00
Weekly RP Attacks, Min [4]: 7.0
Weekly RP Attacks, Q1 [4]: 7.00
Weekly RP Attacks, Q3 [4]: 19.00
